Where a SMILES comes first, the peptide text is derived from it.

The values that follow come from paper PMC11545510, “Goat Milk Protein-Derived ACE Inhibitory Peptide SLPQ Exerts Hypertension Alleviation Effects Partially by Regulating the Inflammatory Stress of Endothelial Cells” (Foods, 2024).

One data set has as its system EA.hy926 cells. Put plainly: MTT cell viability. It is filed as cell-based. Conditions: 12 or 24 h; for viability of EA.hy926 cells: concentration lower than 200 μg/mL. The procedure: The cells were cultured in DMEM with 100 units/mL streptomycin–penicillin plus 2% FBS under an atmosphere of 5% CO2, 37 °C, and 100% humidity. The cells were seeded in 96-well plates at a density of 1 × 10^5 cells/well, and then treated with different concentrations of SLPQ (0, 12.5, 25, 50, 100, 200, 400, 800 μg/mL) or PYVRYL (0, 25, 50, 100, 200, 400, 800 μg/mL) for 12 or 24 h. After that, 0.05 mg/mL of MTT was added to each well and the plate was incubated for four hours at 37 °C. Finally, the culture media were replaced with 150 μL DMSO, and the OD value was detected at a wavelength of 570 nm (Infinity F200 microplate reader, Mainz, Germany).

A further data set relates to eNOS. The note with it: goat milk-derived ACE-inhibitory peptide; ref [39]; cited from earlier work. The procedure: Consequently, peptides SLPQ or PYVRYL were supplemented at concentrations ranging from 0 to 200 μg/mL in the following study. The bradykinin–NO signaling pathway can be activated by […] [44], and NO plays an important role in regulating blood pressure and the tension of vascular smooth muscle. Therefore, the content of NO in the ...

In the case of `CC(C)C[C@H](NC(=O)[C@H](Cc1ccc(O)cc1)NC(=O)[C@H](CCCNC(=N)N)NC(=O)[C@@H](NC(=O)[C@H](Cc1ccc(O)cc1)NC(=O)[C@@H]1CCCN1)C(C)C)C(=O)O` [PYVRYL] (H-PYVRYL-OH), the “toxic effects on EA.hy926 cells” value in the data set on EA.hy926 cells (400 μg/mL) and in the data set on EA.hy926 cells (800 μg/mL) was “obvious toxic effects” throughout. Besides, the “viability of EA.hy926 cells” value in the data set on EA.hy926 cells was “not affected”.

Take SQPK: in the data set with eNOS, the “NO production and eNOS expression” value was “elevate NO production and eNOS expression”.

In the case of `CC(C)C[C@H](NC(=O)[C@@H](N)CO)C(=O)N1CCC[C@H]1C(=O)N[C@@H](CCC(N)=O)C(=O)O` [SLPQ] (H-SLPQ-OH), the “toxic effects on EA.hy926 cells” value in the data set with EA.hy926 cells (400 μg/mL) and in the data set with EA.hy926 cells (800 μg/mL) was “obvious toxic effects” each time. The “viability of EA.hy926 cells” value in the data set with EA.hy926 cells is “not affected”.
